Entries after “also recorded” stand apart in the source; their conditions may differ.
Columns and labels:
Format in all cases: in vivo
[1] = system: mice; assay: Narcosis potentiating activity on mice (sodium hexobarbital narcosis); settings: for Narcosis potentiating activity on mice, Relative activity: relative to Grandaxin (1.0); for change in vivo at 25 mg/kg / change in vivo at 50 mg/kg / change in vivo at 12.5 mg/kg / change in vivo at 100 mg/kg: Mus musculus, po, 30 minutes before 50 mg/kg sodium hexobarbital i.v., prolongation vs control, read-out: Narcosis potentiating activity on mice, Increase, %
Method: When studying the narcosis potentiating effect, the benzodiazepine compounds were administered to mice in oral dosages of 12.5, 25, 50 or 100 mg/kg, and 30 minutes later 50 mg/kg of sodium hexobarbital were injected intravenously into the animals. The percentage prolongation of the narcosis period, compared to the value observed in the control group treated with sodium hexobarbital alone, was calculated. In these tests Grandaxin was applied again as reference substance.

[2] = system: mice; assay: General behaviour of mice; settings: 100 mg/kg i.p. and, resp., 200 mg/kg p.o., SMA = spontaneous motor activity
Method: These compounds decrease the spontaneous motor activity and potentiate the effect of narcotics.
(§1) The tests were performed on mice. In the examination of the general behaviour the animals were treated intraperitoneally with 100 mg/kg or orally with 200 mg/kg of the compound in question. The fighting behaviour test was performed according to the method of Tedeschi et al. (J. Pharm. Exp. Ther. 25, 28 /1959/). The observations concerning the general behaviour of the animals and the ED50 values obtained in the fighting behaviour test are summarized in Table 1. In these tests 1-(3,4-dimethoxyphenyl)-4-methyl-5-ethyl-7,8-dimethoxy-5H-2,3-benzodiazepine (Grandaxin) was applied as reference substance.

[3] = system: mice; assay: Fighting behaviour test on mice (method of Tedeschi et al.); settings: for ED50: Mus musculus, po, mice; for "Fighting behaviour" test on mice, relative activity: relative to Grandaxin (1.0), from ED50 p.o.
Method: as §1

SMILES	Narcosis potentiating activity on mice, Relative activity ([1]; 25 mg/kg p.o.)	Narcosis potentiating activity on mice, Relative activity ([1]; 50 mg/kg p.o.)	change in vivo at 25 mg/kg ([1]; 25 mg/kg p.o.)	change in vivo at 50 mg/kg ([1]; 50 mg/kg p.o.)	General behaviour [2]	Narcosis potentiating activity on mice, Relative activity ([1]; 12.5 mg/kg p.o.)	change in vivo at 12.5 mg/kg ([1]; 12.5 mg/kg p.o.)	ED50 [3]	"Fighting behaviour" test on mice, relative activity [3]	Narcosis potentiating activity on mice, Relative activity ([1]; 100 mg/kg p.o.)	change in vivo at 100 mg/kg ([1]; 100 mg/kg p.o.)
CCOc1cc2c(cc1OC)C(c1ccc(OC)c(OC)c1)=NN=C(C)C2CC (centres unmarked) [Example 36, 1-(3,4-dimethoxyphenyl)-4-methyl-5-ethyl-7-ethoxy-8-methoxy-5H-2,3-benzodiazepine]	1.62	2.44	132%	278%	–	–	–	–	–	–	–
CCC1C(C)=NN=C(c2ccc(OC)c(OC)c2)c2cc(OC)c(OC(C)C)cc21 (centres unmarked) [Example 33, 1-(3,4-dimethoxyphenyl)-4-methyl-5-ethyl-7-isopropoxy-8-methoxy-5H-2,3-benzodiazepine]	3.01	3.90	244%	445%	–	–	–	–	–	–	–
COc1cc2c(cc1OC)C(c1cccc(Cl)c1)=NN=C(C)C2 [Example 39, 1-(3-Chlorophenyl)-4-methyl-7,8-dimethoxy-5H-2,3-benzodiazepine]	4.25	–	344%	–	Strong decrease of SMA	7.94	135%	16 mg/kg	4.0	–	–
COc1cc2c(cc1OC)C(c1ccccc1OC)=NN=C(C)C2 [Example 43, 1-(2-Methoxyphenyl)-4-methyl-7,8-dimethoxy-5H-2,3-benzodiazepine]	2.89	–	234%	–	Decrease of SMA	–	–	36 mg/kg	1.8	–	–
CCC1C(C)=NN=C(c2ccccc2Cl)c2cc(OC)c(OC)cc21 (centres unmarked) [Example 18, 1-(2-chlorophenyl)-4-methyl-5-ethyl-7,8-dimethoxy-5H-2,3-benzodiazepine]	4.65	13.33	377%	–	Strong decrease of SMA	9.41	160%	40 mg/kg	1.6	–	–
COc1cc2c(cc1OC)C(c1cccc(F)c1)=NN=C(C)C2 [Example 41, 1-(3-Fluorphenyl)-4-methyl-7,8-dimethoxy-5H-2,3-benzodiazepine]	–	1.80	–	205%	Decrease of SMA	–	–	37 mg/kg	1.7	1.60	383%
CCC1=NN=C(c2ccc(OC)c(OC)c2)c2cc(OC)c(OC)cc2C1CC (centres unmarked) [Example 11, 1-(3,4-dimethoxyphenyl)-4,5-diethyl-7,8-dimethoxy-5H-2,3-benzodiazepine]	1.65	1.43	134%	163%	–	–	–	–	–	–	–
CCC1C(C)=NN=C(c2cccc(F)c2)c2cc(OC)c(OC)cc21 (centres unmarked) [Example 42, 1-(3-Fluorphenyl)-4-methyl-5-ethyl-7,8-dimethoxy-5H-2,3-benzodiazepine]	2.52	3.04	204%	347%	Decrease of SMA	–	–	40 mg/kg	1.6	–	–
CCCC1C(C)=NN=C(c2ccc(OC)c(OC)c2)c2cc(OC)c(OC)cc21.O (centres unmarked) [Example 10, 1-(3,4-dimethoxyphenyl)-4-methyl-5-n-propyl-7,8-dimethoxy-5H-2,3-benzodiazepine hydrate]	1.23	1.62	100%	185%	–	–	–	–	–	–	–
COc1cc2c(cc1OC)C(C)C(C)=NN=C2c1cccc(Cl)c1 (centres unmarked) [Example 40, 1-(3-Chlorophenyl)-4,5-dimethyl-7,8-dimethoxy-5H-2,3-benzodiazepine]	–	0.79	–	90%	Decrease of SMA	–	–	50 mg/kg	1.3	0.91	218%
CCC1C(C)=NN=C(c2ccc(OC)c(OC)c2)c2cc(OC)c(OC)cc21 (centres unmarked) [Grandaxin, 1-(3,4-dimethoxyphenyl)-4-methyl-5-ethyl-7,8-dimethoxy-5H-2,3-benzodiazepine, reference compound]	1.0	1.0	81%	114%	Decrease of SMA	1.0	17%	64 mg/kg	1.0	1.0	239%
CCC1C(C)=NN=C(c2ccccc2)c2cc(OC)c(OC)cc21 (centres unmarked) [Example 22, 1-phenyl-4-methyl-5-ethyl-7,8-dimethoxy-5H-2,3-benzodiazepine]	2.23	3.20	181%	364%	Decrease of SMA; also recorded: catalepsy	–	–	35 mg/kg	1.8	–	–
COc1cccc(C2=NN=C(C)Cc3cc(OC)c(OC)cc32)c1 [Example 46, 1-(3-Methoxyphenyl)-4-methyl-7,8-dimethoxy-5H-2,3-benzodiazepine]	3.70	–	300%	–	Strong decrease of SMA	8.24	140%	50 mg/kg	1.3	–	–
CCC1C(C)=NN=C(c2ccccc2C)c2cc(OC)c(OC)cc21 (centres unmarked) [Example 7, 1-(2-tolyl)-4-methyl-5-ethyl-7,8-dimethoxy-5H-2,3-benzodiazepine]	3.71	–	301%	–	–	–	–	–	–	–	–
CCC1C(C)=NN=C(c2ccc(O)c(OC)c2)c2cc(OC)c(OC)cc21 (centres unmarked) [Example 24, 1-(3-methoxy-4-hydroxyphenyl)-4-methyl-5-ethyl-7,8-dimethoxy-5H-2,3-benzodiazepine]	–	1.16	–	132%	–	–	–	–	–	–	–
CCC1C(C)=NN=C(c2ccccc2F)c2cc(OC)c(OC)cc21 (centres unmarked) [Example 14, 1-(2-fluorophenyl)-4-methyl-5-ethyl-7,8 dimethoxy-5H-2,3-benzodiazepine]	3.16	6.57	256%	750%	–	8.65	147%	–	–	–	–
CCCOc1cc2c(cc1OC)C(c1ccc(OC)c(OC)c1)=NN=C(C)C2CC (centres unmarked) [Example 37, 1-(3,4-dimethoxyphenyl)-4-methyl-5-ethyl-7-n-propoxy-8-methoxy-5H-2,3-benzodiazepine]	–	–	–	–	Strong decrease of SMA	–	–	40 mg/kg	1.6	–	–

Source: patent US4322346A, “5H-2,3-Benzodiazepine derivatives” (priority 1978, dated 1982)
